In US8829024B2, “Combination steroid and glucocorticoid receptor antagonist therapy” (Corcept Therapeutics, Inc., priority 2011, dated 2014):

How the values were obtained:
[1] = tested on: GR induced transrepression (LPS activated TNFα release); test: Glucocorticosteroid transrepression assay (LPS activated TNFα release in peripheral blood mononuclear cells); format: cell-based; conditions: human PBMC, 10 ng/ml LPS; for blockade of dexamethasone induced repression of LPS activated TNFα release (antagonism of transrepression): in presence of 50 nM dexamethasone, FIG. 1b
Procedure: Using a cell-based model (human peripheral blood mononuclear cells), dexamethasone was administered to the cells and the release of TNFα was measured. After addition of the GR modulator of the present invention, the release of TNFα was again measured and compared to the amount released in the absence of the GR modulator.
Human peripheral blood mononuclear cells were isolated and distributed in 96-well plates at a density of 2×10^5 cells/well in medium. Compounds were tested at 7 concentrations (semi-log dilutions) and prepared at 5× final assay concentration in 1.5% DMSO. Following a preincubation of 30 minutes with compounds the plates are then incubated in presence of 50 nM dexamethasone or media for 30 minutes. TNFα release was activated by overnight incubation with 10 ng/ml LPS. Human TNFα was measured using chemiluminescence detected on the SECTOR® Imager 6000 (Mesoscale). Dexamethasone was used to inhibit LPS activated TNFα release via the glucocorticoid receptor. […] In some cases, CORT-108297 was added in the absence of dexamethasone to determine if CORT-108297 inhibited LPS activated TNFα release.

[2] = tested on: GR induced transactivation (tyrosine amino transferase expression); test: Glucocorticosteroid transactivation assay (tyrosine amino transferase expression in primary hepatocytes); format: cell-based; conditions: human liver hepatocytes; for inhibition of dexamethasone induced expression of tyrosine amino transferase (antagonism of GR induced transactivation): in presence of 50 nM dexamethasone, FIG. 2b
Description: GR modulators of the present invention that inhibit GR induced transactivation can be identified by measuring the amount of tyrosine amino transferase expressed in the presence of the GR induced transactivation in a cell model (human liver hepatocytes).
In this example, dexamethasone induces the expression of tyrosine amino transferase by transactivation. Typically, glucocorticosteroids, such as the synthetic dexamethasone, bind the ligand-binding domain of the glucocorticoid receptor (GR) to promote nuclear translocation. In the nucleus, the DNA binding domain directs dimerization on imperfect DNA palindromes known as simple glucocorticoid response elements (GREs) to transcriptionally activate genes including tyrosine amino transferase (TAT).
Primary hepatocytes were distributed in 96-well collagen coated plates and equilibrated in media (without hydrocortisone) for 6 hours. Compounds were tested at 6 concentrations (semi-log dilutions) and prepared in 0.2% DMSO in the presence of 50 nM dexamethasone or media. Hepatocytes in the presence of compound were incubated for 24 hours, washed in PBS and lysed for 30 minutes (30 μl lysis volume). The TAT enzyme assay was initiated by the addition of 170 μl TAT assay buffer (substrate) for 1 hour. The reaction was terminated by the addition of 30 μl 10N KOH and the 96-well plates incubated for a further 30 min […] to allow formation of the aromatic aldehyde product, p-hydroxybenzaldehyde. Absorbance was read at 340 nm on a spectrophotometer.
Reagents: TAT assay buffer: 0.2 M KH2PO4 pH7.4 containing 5.4 mM L-tyrosine, 10.8 mM α-ketoglutaric acid and 0.06 mM Pyridoxal-5-phosphate monohydrate.
Dexamethasone was used to increase the expression of tyrosine amino transferase in human liver hepatocytes.

CCOC[C@]12Cc3cnn(-c4ccc(F)cc4)c3C=C1CCN(S(=O)(=O)c1ccc(C(F)(F)F)cc1)C2 [CORT-108297]
inhibition of LPS activated TNFα release, compound alone (transrepression agonism), in words ([1]; FIG. 1a): weak partial agonist of GR induced transrepression
maximal inhibition of LPS activated TNFα release, compound alone ([1]; at micromolar concentrations, no dexamethasone, FIG. 1a): 48%
blockade of dexamethasone induced repression of LPS activated TNFα release (antagonism of transrepression) [1]: only shows partial blockade at higher concentrations
expression of tyrosine amino transferase (increase), compound alone ([2]; all concentrations assayed, no dexamethasone, FIG. 2a): ≤ 0%
inhibition of dexamethasone induced expression of tyrosine amino transferase (antagonism of GR induced transactivation) [2]: full potent antagonist of GR induced transactivation

C[C@@H]1C[C@H]2[C@@H]3CCC4=CC(=O)C=C[C@]4(C)[C@@]3(F)[C@@H](O)C[C@]2(C)[C@@]1(O)C(=O)CO [dexamethasone, reference compound]
concentration giving maximal increase in TAT expression (transactivation) ([2]; compound alone, FIG. 2a): about 100 nM

CC#C[C@]1(O)CC[C@H]2[C@@H]3CCC4=CC(=O)CCC4=C3[C@@H](c3ccc(N(C)C)cc3)C[C@@]21C [mifepristone, reference compound]
blockade of dexamethasone induced repression of LPS activated TNFα release (antagonism of transrepression) [1]: completely blocks this effect
inhibition of dexamethasone induced expression of tyrosine amino transferase (antagonism of GR induced transactivation) [2]: inhibit the increased expression of tyrosine amino transferase
